In data set [1] the test system is HeLa cells. Description: Luciferase Protein Expression Assay in HeLa Cells. The class given is cell-based, Human. The settings on record: LNPs encapsulating Luciferase mRNA, 25 ng per well, N=4 wells; 5 h serum-free then 24 h; ONE-Glo. An outline of the steps: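 Luminescence output, average RLU across N=4 wells, was measured with ONE-Glo after cell lysis. Before that, HeLa cells were exposed to 25 ng/well luciferase-mRNA nanoparticles (PBS control) for 5 h serum-free, then cultured overnight (24 h) in complete MEM.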

The nature of data set [2]: Encapsulation of mRNA nanoparticles with lipid amines using Ribogreen assay. The class given is physicochemical. An outline of the steps:
(§1)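 DLS gave size and PDI, and Ribogreen gave encapsulation, for luciferase- or CFTR-mRNA nanoparticles (N:P 4.93). Particles came from IL1/DSPC/cholesterol/PEG-DMG-2K mixed at pH 4, mRNA-loaded, neutralized with TRIS pH 8.12, and then treated with lipid amine SA50 in pH 7.5 buffer.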

Data set [3] has as its system HeLa cells. Kind of data set: CFTR Protein Expression Assay in HeLa Cells. The settings on record: LNPs encapsulating CFTR mRNA, N=4 wells; 5 h serum-free then 24 h; immunofluorescence vs PBS control. The class given is cell-based, Human. An outline of the steps: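 Readout is fold-change in per-cell CFTR immunofluorescence intensity (488 nm, confocal imaging) relative to PBS-treated cells, from 4 replicate wells. LNPs encapsulating CFTR mRNA were applied serum-free for 5 h, followed by 24 h in complete medium before PFA fixation.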

Data set [4] can be described thus: Diameter and PDI from DLS measurements of mRNA nanoparticles with lipid amines. Type of data set: physicochemical. An outline of the steps:
as §1

[5] abbreviates: CFTR mRNA nanoparticle with lipid amine.
Setting [6] is: Luciferase mRNA nanoparticle modified with lipid amine.

Eight molecules from patent US20260109732A1, “LIPID AMINES” (ModernaTX, Inc., priority 2021, published 2026) can be followed below.

Counter-ions that a name gives are not always drawn.

Take `CC(C)CCC[C@@H](C)[C@H]1CC[C@H]2[C@@H]3CC=C4C[C@@H](OC(=O)C(C)C(=O)N(CCCN)CCCCNCCCN)CC[C@]4(C)[C@H]3CC[C@]12C.Cl.Cl.Cl` (stereo partly drawn) [SA62, (3S,8S,9S,10R,13R,14S,17R)-10,13-Dimethyl-17-((R)-6-methylheptan-2-yl)-2,3,4,7,8,9,10,11,12,13,14,15,16,17-tetradecahydro-1H-cyclopenta[a]phenanthren-3-yl 3-((3-aminopropyl)(4-((3-aminopropyl)amino)butyl)amino)-2-methyl-3-oxopropanoate trihydrochloride]: the “Average Relative Light Units ± Standard Deviation” value with HeLa cells [1] is 18807.1 ± 6618.4 Relative Light Units. Also, the “% Encapsulation (Ribogreen)” value in data set [2] (setting [5]) is reported as 99.6%; in data set [2] (setting [6]), 99.0%. Besides, the “Average fold-change in CFTR signal intensity per cell compared to buffer control ± standard deviation” value in the data set on HeLa cells [3] is on record as 5.5 ± 1.3 fold-change. In addition, the “Diameter (nm)” value in data set [4] (setting [5]) is listed as 74.2 nm; in data set [4] (setting [6]) it was 78 nm. Moreover, the results for the PDI in data set [4] (setting [5]) and in data set [4] (setting [6]) were 0.10 and 0.20, respectively.

Turning to `CC[C@H](CC[C@@H](C)[C@H]1CC[C@H]2[C@@H]3CC=C4C[C@@H](OC(=O)CCC(=O)N(CCC(C)(C)N)CCC(C)(C)N)CC[C@]4(C)[C@H]3CC[C@]12C)C(C)C` [SA170, (3S,8S,9S,10R,13R,14S,17R)-17-((2R,5R)-5-ethyl-6-methylheptan-2-yl)-10,13-dimethyl-2,3,4,7,8,9,10,11,12,13,14,15,16,17-tetradecahydro-1H-cyclopenta[a]phenanthren-3-yl 4-(bis(3-amino-3-methylbutyl)amino)-4-oxobutanoate dihydrochloride], the “Average Relative Light Units ± Standard Deviation” value in the data set with HeLa cells [1] is listed as 23687.3 ± 3865 Relative Light Units. Besides, the “% Encapsulation (Ribogreen)” value in data set [2] (setting [5]) came to 99.2%; in data set [2] (setting [6]), 99.6%. Further, in the data set on HeLa cells [3], the “Average fold-change in CFTR signal intensity per cell compared to buffer control ± standard deviation” value is reported as 19.0 ± 1.7 fold-change. Further, the “Diameter (nm)” value in data set [4] (setting [5]) was 74.8 nm; in data set [4] (setting [6]) it was 75 nm. Also, the results for the PDI in data set [4] (setting [5]) and in data set [4] (setting [6]) were 0.15 and 0.21, respectively.

Take `CC[C@H](CC[C@@H](C)[C@H]1CC[C@H]2[C@@H]3CC=C4C[C@@H](OC(=O)CCCC(=O)N(CCCCNCCC(C)(C)N)CCC(C)(C)N)CC[C@]4(C)[C@H]3CC[C@]12C)C(C)C.Cl.Cl.Cl` [SA137, (3S,8S,9S,10R,13R,14S,17R)-17-((2R,5R)-5-ethyl-6-methylheptan-2-yl)-10,13-dimethyl-2,3,4,7,8,9,10,11,12,13,14,15,16,17-tetradecahydro-1H-cyclopenta[a]phenanthren-3-yl 5-((3-amino-3-methylbutyl)(4-((3-amino-3-methylbutyl)amino)butyl)amino)-5-oxopentanoate trihydrochloride]: in the data set on HeLa cells [1], the “Average Relative Light Units ± Standard Deviation” value worked out at 15239.8 ± 6248.1 Relative Light Units. The “% Encapsulation (Ribogreen)” value in data set [2] (setting [5]) amounted to 98.3%; in data set [2] (setting [6]) it was 99.6%. Moreover, the “Average fold-change in CFTR signal intensity per cell compared to buffer control ± standard deviation” value in the data set with HeLa cells [3] is 14.0 ± 0.8 fold-change. The “Diameter (nm)” value stood at 76.3 nm in data set [4] (setting [5]) and 79 nm in data set [4] (setting [6]). For the same molecule, the PDI is recorded as 0.13 in data set [4] (setting [5]) and 0.20 in data set [4] (setting [6]).

With `CC[C@H](CC[C@@H](C)[C@H]1CC[C@H]2[C@@H]3CC=C4C[C@@H](OC(=O)[C@H](C)N(CCCN)CCCCNCCCN)CC[C@]4(C)[C@H]3CC[C@]12C)C(C)C` [SA118, (3S,8S,9S,10R,13R,14S,17R)-17-((2R,5R)-5-ethyl-6-methylheptan-2-yl)-10,13-dimethyl-2,3,4,7,8,9,10,11,12,13,14,15,16,17-tetradecahydro-1H-cyclopenta[a]phenanthren-3-yl N-(3-aminopropyl)-N-(4-((3-aminopropyl)amino)butyl)alaninate tetrahydrochloride], the “Average Relative Light Units ± Standard Deviation” value with HeLa cells [1] was found to be 12261.7 ± 4328.5 Relative Light Units. In addition, the “% Encapsulation (Ribogreen)” value turned out to be 97.9% in data set [2] (setting [5]) and 99.7% in data set [2] (setting [6]). Moreover, the “Average fold-change in CFTR signal intensity per cell compared to buffer control ± standard deviation” value in the data set with HeLa cells [3] is 9.7 ± 1.2 fold-change. The “Diameter (nm)” value is listed as 89.9 nm in data set [4] (setting [5]) and 74 nm in data set [4] (setting [6]). Moreover, the PDI in data set [4] (setting [5]) was found to be 0.16; in data set [4] (setting [6]), 0.19.

For `CC(C)CCC[C@@H](C)[C@H]1CC[C@H]2[C@@H]3CC=C4C[C@@H](OC(=O)CCC(=O)N(CCCC(C)(C)N)CCC(C)(C)N)CC[C@]4(C)[C@H]3CC[C@]12C` [SA166, (3S,8S,9S,10R,13R,14S,17R)-10,13-dimethyl-17-((R)-6-methylheptan-2-yl)-2,3,4,7,8,9,10,11,12,13,14,15,16,17-tetradecahydro-1H-cyclopenta[a]phenanthren-3-yl 4-((3-amino-3-methylbutyl)(4-amino-4-methylpentyl)amino)-4-oxobutanoate dihydrochloride], the “Average Relative Light Units ± Standard Deviation” value in the data set on HeLa cells [1] was found to be 33377.3 ± 8879.8 Relative Light Units. In addition, the figures for the “% Encapsulation (Ribogreen)” value in data set [2] (setting [5]) and in data set [2] (setting [6]) were 99.5% and 99.2%, respectively. Further, the “Average fold-change in CFTR signal intensity per cell compared to buffer control ± standard deviation” value in the data set with HeLa cells [3] was determined as 15.6 ± 1.3 fold-change. Further, the “Diameter (nm)” value is given as 76.1 nm in data set [4] (setting [5]) and 75 nm in data set [4] (setting [6]). Further, the PDI in data set [4] (setting [5]) is reported as 0.16; in data set [4] (setting [6]), 0.14.

In the case of `CC(C)CCC[C@@H](C)[C@H]1CC[C@H]2[C@@H]3CC=C4C[C@@H](OC(=O)CCC(=O)N(CCC(C)(C)N)CCC(C)(C)N)CC[C@]4(C)[C@H]3CC[C@]12C` [SA169, (3S,8S,9S,10R,13R,14S,17R)-10,13-dimethyl-17-((R)-6-methylheptan-2-yl)-2,3,4,7,8,9,10,11,12,13,14,15,16,17-tetradecahydro-1H-cyclopenta[a]phenanthren-3-yl 4-(bis(3-amino-3-methylbutyl)amino)-4-oxobutanoate dihydrochloride], the “Average Relative Light Units ± Standard Deviation” value in the data set on HeLa cells [1] is given as 28034.9 ± 4050.3 Relative Light Units. In addition, the “% Encapsulation (Ribogreen)” value in data set [2] (setting [5]) is reported as 99.2%; in data set [2] (setting [6]), 99.4%. Also, in the data set with HeLa cells [3], the “Average fold-change in CFTR signal intensity per cell compared to buffer control ± standard deviation” value was determined as 19.7 ± 1.6 fold-change. Also, the “Diameter (nm)” value in data set [4] (setting [5]) came out at 73.0 nm; in data set [4] (setting [6]), 77 nm. Moreover, the PDI in data set [4] (setting [5]) was 0.14; in data set [4] (setting [6]), 0.20.

Take `CC[C@H](CC[C@@H](C)[C@H]1CC[C@H]2[C@@H]3CC=C4C[C@@H](OC(=O)CCCCC(=O)N(CCCN)CCCCNCCCN)CC[C@]4(C)[C@H]3CC[C@]12C)C(C)C` [SA90, (3S,8S,9S,10R,13R,14S,17R)-17-((2R,5R)-5-ethyl-6-methylheptan-2-yl)-10,13-dimethyl-2,3,4,7,8,9,10,11,12,13,14,15,16,17-tetradecahydro-1H-cyclopenta[a]phenanthren-3-yl 6-((3-aminopropyl)(4-((3-aminopropyl)amino)butyl)amino)-6-oxohexanoate trihydrochloride]: the “Average Relative Light Units ± Standard Deviation” value in the data set with HeLa cells [1] is on record as 9337.4 ± 3055.2 Relative Light Units. Besides, the “% Encapsulation (Ribogreen)” value in data set [2] (setting [5]) is 98.1%; in data set [2] (setting [6]) it was 99.6%. Besides, the “Average fold-change in CFTR signal intensity per cell compared to buffer control ± standard deviation” value in the data set on HeLa cells [3] came out at 4.2 ± 0.4 fold-change. Besides, the “Diameter (nm)” value is reported as 84.6 nm in data set [4] (setting [5]) and 76 nm in data set [4] (setting [6]). Also, the PDI in data set [4] (setting [5]) is 0.14; in data set [4] (setting [6]), 0.19.

In the case of `CC[C@H](CC[C@@H](C)[C@H]1CC[C@H]2[C@@H]3CC=C4C[C@@H](SSCCC(=O)N(CCCCCCCC(C)(C)N)CCC(C)(C)N)CC[C@]4(C)[C@H]3CC[C@]12C)C(C)C` [SA179, N-(3-amino-3-methylbutyl)-N-(8-amino-8-methylnonyl)-3-(((3S,8S,9S,10R,13R,14S,17R)-17-((2R,5R)-5-ethyl-6-methylheptan-2-yl)-10,13-dimethyl-2,3,4,7,8,9,10,11,12,13,14,15,16,17-tetradecahydro-1H-cyclopenta[a]phenanthren-3-yl)disulfaneyl)propanamide dihydrochloride], the “Average Relative Light Units ± Standard Deviation” value in the data set with HeLa cells [1] was 12298.9 ± 928.6 Relative Light Units. Further, the “% Encapsulation (Ribogreen)” value in data set [2] (setting [5]) turned out to be 99.8%; in data set [2] (setting [6]), 99.0%. Also, the “Average fold-change in CFTR signal intensity per cell compared to buffer control ± standard deviation” value with HeLa cells [3] is 7.0 ± 0.6 fold-change. Further, the “Diameter (nm)” value in data set [4] (setting [5]) and in data set [4] (setting [6]) was 73 nm in each case. Besides, the figures for the PDI in data set [4] (setting [5]) and in data set [4] (setting [6]) were 0.15 and 0.17, respectively.
